Data taken from ChEMBL document CHEMBL4043180, “Biological evaluation of 2-pyrazolinyl-1-carbothioamide derivatives against HCT116 human colorectal cancer cell lines and elucidation on QSAR and molecular binding modes” (Bioorg Med Chem, 2017).
The source made the active and inactive calls. No cut-off for these calls is given here.

Assays:
[1] = target: Tyrosine-protein kinase ABL1 (Homo sapiens) (UniProt P00519); assay: Inhibition of Abl1 (unknown origin) at 10 uM
[2] = target: Bcr/Abl fusion protein (Homo sapiens) (UniProt P00519+P11274); assay: Inhibition of BCR/ABL Tyr245 phosphorylation in human K562 cells at 20 uM incubated for 6 to 24 hrs; assay type: cell-based
Chain of Bcr/Abl fusion protein (Homo sapiens) (P00519 whole entry, looked up, the tested form may be a part): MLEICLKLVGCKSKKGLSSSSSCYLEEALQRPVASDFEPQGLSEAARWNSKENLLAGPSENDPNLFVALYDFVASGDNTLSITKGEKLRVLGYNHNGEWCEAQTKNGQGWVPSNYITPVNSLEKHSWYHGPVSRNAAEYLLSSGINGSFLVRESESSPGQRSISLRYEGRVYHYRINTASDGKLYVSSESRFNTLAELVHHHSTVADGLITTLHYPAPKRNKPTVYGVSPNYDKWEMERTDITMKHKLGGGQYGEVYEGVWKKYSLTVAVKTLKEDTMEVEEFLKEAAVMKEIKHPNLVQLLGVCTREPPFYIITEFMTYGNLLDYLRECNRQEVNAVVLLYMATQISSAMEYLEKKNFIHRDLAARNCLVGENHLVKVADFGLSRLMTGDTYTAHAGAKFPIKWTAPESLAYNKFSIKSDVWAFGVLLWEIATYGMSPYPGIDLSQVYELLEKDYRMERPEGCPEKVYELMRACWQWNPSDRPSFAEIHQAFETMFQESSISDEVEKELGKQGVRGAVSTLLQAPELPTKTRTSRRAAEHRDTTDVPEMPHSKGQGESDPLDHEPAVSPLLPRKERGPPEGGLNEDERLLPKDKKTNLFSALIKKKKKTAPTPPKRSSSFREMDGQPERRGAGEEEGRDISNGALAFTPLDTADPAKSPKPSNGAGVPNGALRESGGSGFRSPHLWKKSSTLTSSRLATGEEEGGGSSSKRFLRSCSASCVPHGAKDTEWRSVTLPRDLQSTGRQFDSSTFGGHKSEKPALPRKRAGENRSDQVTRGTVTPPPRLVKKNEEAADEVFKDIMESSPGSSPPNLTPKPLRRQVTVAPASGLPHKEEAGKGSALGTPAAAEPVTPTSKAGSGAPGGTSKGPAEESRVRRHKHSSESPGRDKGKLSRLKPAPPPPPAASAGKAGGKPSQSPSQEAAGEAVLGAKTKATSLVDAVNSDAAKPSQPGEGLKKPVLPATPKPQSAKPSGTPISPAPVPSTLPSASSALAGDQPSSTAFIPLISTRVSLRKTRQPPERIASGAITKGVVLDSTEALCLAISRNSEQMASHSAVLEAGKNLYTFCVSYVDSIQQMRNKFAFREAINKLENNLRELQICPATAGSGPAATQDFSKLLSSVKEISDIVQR
Chain of Bcr/Abl fusion protein (Homo sapiens) (P11274 whole entry, looked up, the tested form may be a part): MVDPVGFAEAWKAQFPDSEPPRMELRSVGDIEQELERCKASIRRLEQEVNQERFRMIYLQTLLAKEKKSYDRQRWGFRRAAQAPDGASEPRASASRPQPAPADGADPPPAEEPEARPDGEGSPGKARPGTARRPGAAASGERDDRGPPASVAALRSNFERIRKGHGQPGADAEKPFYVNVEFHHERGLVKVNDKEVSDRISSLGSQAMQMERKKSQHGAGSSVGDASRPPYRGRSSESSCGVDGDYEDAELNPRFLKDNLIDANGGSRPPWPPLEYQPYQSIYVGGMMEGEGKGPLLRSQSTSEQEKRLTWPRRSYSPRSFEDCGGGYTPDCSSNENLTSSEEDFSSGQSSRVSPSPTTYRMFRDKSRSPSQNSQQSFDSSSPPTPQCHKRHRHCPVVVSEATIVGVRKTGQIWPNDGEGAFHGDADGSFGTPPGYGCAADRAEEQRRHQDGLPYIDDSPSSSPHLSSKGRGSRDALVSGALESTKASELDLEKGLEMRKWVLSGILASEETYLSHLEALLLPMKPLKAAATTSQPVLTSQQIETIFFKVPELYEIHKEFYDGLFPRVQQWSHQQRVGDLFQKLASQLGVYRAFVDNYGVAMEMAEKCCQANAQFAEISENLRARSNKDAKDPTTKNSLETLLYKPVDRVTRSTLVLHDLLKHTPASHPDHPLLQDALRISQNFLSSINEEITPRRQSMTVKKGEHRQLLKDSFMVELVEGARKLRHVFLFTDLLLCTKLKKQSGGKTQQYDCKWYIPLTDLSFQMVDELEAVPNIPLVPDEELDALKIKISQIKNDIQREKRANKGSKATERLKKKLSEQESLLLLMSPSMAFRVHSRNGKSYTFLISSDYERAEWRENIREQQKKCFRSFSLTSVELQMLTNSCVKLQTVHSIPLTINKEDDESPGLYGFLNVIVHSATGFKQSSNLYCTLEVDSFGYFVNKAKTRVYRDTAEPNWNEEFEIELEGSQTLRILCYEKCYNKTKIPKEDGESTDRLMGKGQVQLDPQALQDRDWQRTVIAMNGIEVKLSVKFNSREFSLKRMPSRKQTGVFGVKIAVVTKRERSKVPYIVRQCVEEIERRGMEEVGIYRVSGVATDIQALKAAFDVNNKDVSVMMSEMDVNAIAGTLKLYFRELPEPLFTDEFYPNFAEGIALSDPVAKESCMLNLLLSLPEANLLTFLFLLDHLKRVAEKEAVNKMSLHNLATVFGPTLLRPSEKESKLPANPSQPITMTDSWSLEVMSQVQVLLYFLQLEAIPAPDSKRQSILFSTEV

Chain of Tyrosine-protein kinase ABL1 (Homo sapiens) (P00519 whole entry, the tested form may be a part): as the sequence (P00519 whole entry, looked up, the tested form may be a part) above

Which inhibition [1] does the source give for COc1cc(O)c(C2=NN(C(=S)Nc3cc(OC)c(OC)c(OC)c3)C(c3cccc4ccccc34)C2)cc1OC (configuration not stated) here?
Its inhibition is 93%.

And the inhibition [2]?
The inhibition was “Active”.
